Literature values as cited in US5817628A, “Dynorphin a suppression of natural killer cell activity” (The Rockefeller University, priority 1992, dated 1998).

System: NK cells
Conditions: reported by other investigators

Molecule	effect on NK activity in vitro (literature)
Met-enkephalin	appears to enhance NK activity
CN1CC[C@]23c4c5ccc(O)c4O[C@H]2[C@@H](O)C=C[C@H]3[C@H]1C5 [Morphine]	enhanced NK activity in one study
β-endorphin (YGGFMTSEKSQTPLVTLFKNAIIKNAYKKGE; Beta-endorphin; UniProt P01189 237-267, looked up) [endogenous opioid]	increases NK cell activity in vitro
CCC(=O)C(CC(C)N(C)C)(c1ccccc1)c1ccccc1 (stereo not shown) [methadone]	observed in vitro only at methadone concentrations many orders of magnitude higher than those observed during any clinical use of methadone
